In patent US12319699B2, “L-proline sulfonamide derivatives comprising pyrazolo[4,3-e]tetrazolo[4,5-b][1,2,4]triazine system, method of manufacturing thereof, uses thereof and pharmaceutical composition comprising the same” (UNIWERSYTET MEDYCZNY W BIALYMSTOKU, priority 2018, dated 2025) one finds IC50 data, which are given here for two compounds.

What all share (type): cell-based
The test system of experiment [1] is AGS human gastric cancer cells. The experiment is described as follows: Cytotoxicity, MTT assay (Carmichael's method), cell survival. To be noted: 24-hour incubation. The protocol:
AGS human gastric cancer cells (ATCC CRL-1739, Manassas, VA, USA) were cultured in DMEM (Dulbecco's Modified Eagle's Medium) supplemented with 10% fetal bovine serum (FBS), 2 mM glutamine, 50 U/ml penicillin, 50 μg/ml streptomycin at 37° C., in atmosphere containing 5% CO2. Subsequently, the cells were counted in a hemocytometer and transferred in the amount of […] cells per well in 1 ml of culture medium from Costar flasks (Sigma, USA) to Nunc 6-well plates (Wiesbaden, Germany). The cells were transferred using calcium-free phosphate buffer with the addition of 0.05% trypsin and 0.02% EDTA. […] Within the subsequent 24 hours the cells covered at least 80% of the surface of each plate well. […]
(§1) Cytotoxicity of the examined compounds according to the invention was measured by Carmichael's method (Carmichael J et al, Cancer Res., 1987, 47:943-946) and cell viability was determined using the tetrazolium salt (MT) in MTT assay. […] In a cell lysate prepared in such manner absorbance at 630 nm was measured. The result of absorbance obtained in the control cell cultures was assumed to be 100%. The viability of cells incubated in the presence of the examined compounds was expressed as percentage of the control values. The significance level p was determined by the nonparametric Mann-Whitney U test by means of SigmaStat software. […]

For experiment [2], the system named is DLD-1 human colorectal cancer cells. The description is as above. The following applies: DLD-1, 24-hour incubation. The protocol:
DLD-1 human colorectal cancer cells (ATCC CCL-221, Manassas, VA, USA) were grown in DMEM (Dulbecco's Modified Eagle's Medium) supplemented with 10% fetal bovine serum (FBS), 2 mM glutamine, 50 U/ml penicillin, 50 μg/ml streptomycin at 37° C., in atmosphere containing 5% of CO2. Then the cells were counted in a hemocytometer and transferred in the amount of 1×10^6 cells per well in 1 ml of culture medium from Costar flasks (Sigma, USA) to Nunc 6-well plates (Wiesbaden, Germany). The cells were transferred using calcium-free phosphate buffer with the addition of 0.05% trypsin and 0.02% EDTA. […] Within the subsequent 24 hours the cells covered at least 80% of the surface of each plate well. […]
as §1

Experiment [3] shares this test system. The experiment is described as follows: DNA biosynthesis, [3H]-thymidine incorporation. The following applies: DLD-1, 24-hour incubation. The protocol:
DLD-1 human colorectal cancer cells (ATCC CCL-221, Manassas, VA, USA) were grown in DMEM (Dulbecco's Modified Eagle's Medium) supplemented with 10% fetal bovine serum (FBS), 2 mM glutamine, 50 U/ml penicillin, 50 μg/ml streptomycin at 37° C., in atmosphere containing 5% of CO2. Then the cells were counted in a hemocytometer and transferred in the amount of 1×10^6 cells per well in 1 ml of culture medium from Costar flasks (Sigma, USA) to Nunc 6-well plates (Wiesbaden, Germany). The cells were transferred using calcium-free phosphate buffer with the addition of 0.05% trypsin and 0.02% EDTA. […] Within the subsequent 24 hours the cells covered at least 80% of the surface of each plate well. The cells prepared in this manner were incubated with the examined compounds for 24 hours and then used for further experiments.
(§2) The effect of the examined compounds according to the invention on the process of DNA biosynthesis was assessed by measuring incorporation of [^3H]-thymidine into DNA of the examined cells. […] After 5 minutes, the cell lysate obtained was transferred to scintillation vials containing 2 ml of scintillation fluid and radioactivity was measured. […] The values from the examined samples were expressed as percentage of the control value. The significance level p was determined by the nonparametric Mann-Whitney U test by means of SigmaStat software. […]
For orientation: Incorporation of labelled thymidine or its analogues reports DNA synthesis.

Experiment [4] concerns HT-29 human colorectal cancer cells. The experiment is described as follows: DNA biosynthesis, [3H]-thymidine incorporation. To be noted: HT-29, 24-hour incubation. The protocol: HT-29 human colorectal cancer cells (ATCC HTB-38, Manassas, VA, USA) were cultured in McCoy's 5A medium supplemented with 10% fetal bovine serum (FBS), 2 mM glutamine, 50 U/ml penicillin, 50 μg/ml of streptomycin at 37° C., in atmosphere containing 5% CO2. Subsequently, the cells were counted in a hemocytometer and were transferred in the amount of 1×10^6 cells per well in 1 ml of culture medium from Costar flasks (Sigma, USA) to Nunc 6-well plates (Wiesbaden, Germany). The cells were transferred using calcium-free phosphate buffer with the addition of 0.05% trypsin and 0.02% EDTA. […] Within the subsequent 24 hours the cells covered at least 80% of the surface of each plate well. The cells prepared in this manner were incubated with the examined compounds for 24 hours and then used for further experiments.
as §2

What is called IC50 is the midpoint of a concentration-inhibition curve. Take `COC(=O)C1CC(O)CN1S(=O)(=O)c1ccc(-n2nc(C)c3nc4nnnn4nc32)cc1` (centres unmarked) [Compound of Formula 3, Methyl 4-hydroxy-1-[4-(7-methyl-5H-pyrazolo[4,3-e]tetrazolo[4,5-b][1,2,4]triazyn-5-yl)phenylsulfonyl]pyrrolidine-2-carboxylate]: the IC50 is 800 ± 10 nM in experiment [1], 3100 ± 20 nM in experiment [2], 1550 ± 20 nM in experiment [3] and 2300 ± 20 nM in experiment [4].

For `COC(=O)C1CCCN1S(=O)(=O)c1ccc(-n2nc(C)c3nc4nnnn4nc32)cc1` (centres unmarked) [Compound of Formula 2, Methyl 1-[4-(7-methyl-5H-pyrazol[4,3-e]tetrazolo[4,5-b][1,2,4]triazyn-5-yl)phenylsulfonyl]pyrrolidine-2-carboxylate], the IC50 in experiment [1] was 920 ± 10 nM; in experiment [2] it was 1100 ± 10 nM; in experiment [3], 560 ± 10 nM; in experiment [4], 3620 ± 20 nM.
